Measured values from patent US20060079453A1, “Hla binding peptides and their uses” (priority 2002, published 2006).
No end group written: not given here.

Legend:
Assay in all cases: biochemical
Type in all cases: binding
HLA-A*6801 = HLA-A*6801 (Homo sapiens, UniProt P04439, A269V/D185E/E176V/E277Q/E87N/F33Y/G231S/I121M/I166T/I218V/L180W/L300P/L318F/N151K/P208A/P217A/Q86R/R169H/T345S)
HLA-A*3301 = HLA-A*3301 (Homo sapiens, UniProt P04439, A270S/D185E/E176V/E277Q/E87N/F33T/G231S/H175R/I121M/I218V/I322F/K168Q/K210R/L300P/L318F/M331R/P217A/Q86R/Q94H/R138Q/T323A/T345S/T97I/V358M/Y195H)
HLA-A*3101 = HLA-A*3101 (Homo sapiens, UniProt P04439, A270S/D185E/E176V/E277Q/F33T/G231S/G80R/H175R/I121M/I218V/I322F/K168Q/L300P/L318F/M331R/P217A/Q94H/R138Q/T323A/T345S/T97I/V358M)
HLA-A*1101 = HLA-A*1101 (Homo sapiens, UniProt P04439, A114D/D185E/E176A/F33Y/L180Q/S129P/T187R)
HLA-A*0301 = HLA-A*0301 (Homo sapiens, UniProt P04439)

Row | Sequence | IC50 (HLA-A*6801) [nM] | IC50 (HLA-A*3301) [nM] | IC50 (HLA-A*3101) [nM] | IC50 (HLA-A*1101) [nM] | IC50 (HLA-A*0301) [nM]
1 | RLYSKVSEFR | 73 | 690 | 24 | 131 | 6.4
2 | VFADLRIVYK | 273 | 200 | 402 | 127 | 2090
3 | KSMLKELIK | > 37000 | > 46500 | 450 | 151 | 189
4 | ALERLLSLK | 13700 | 12800 | 3430 | 369 | 233
5 | TFLEKLTNK | 918 | 148 | 451 | 815 | 6840
6 | KTLGISYGR | 36 | 502 | 21 | 9.8 | 53
7 | RFLSKISEYY | 4000 | 41100 | 14 | 25500 | 1700
8 | TLYQIQVMKR | 90 | 558 | 397 | 164 | 361
9 | VTVYYGPGPGK | 30 | 102000 | 9720 | 24 | 310
10 | AACWRSRRK | 12900 | 45300 | 3020 | 770 | 75
11 | RLLSKISEYR | 21 | 108 | 7.7 | 662 | 5.2
12 | RVRRRRWRAR | > 36900 | 3760 | 265 | > 16800 | 2440
13 | PVLTSLFNK | 29900 | 18300 | 5110 | 25 | 1950
14 | LVFSNVLCFR | 7.7 | 19 | 33 | 19 | 120
15 | NSVYGETLER | 18 | 1330 | 163 | 25 | 150
16 | GTRQARRNK | 59700 | 46000 | 9710 | 749 | 67
17 | ETNPFGICK | 14 | 804 | 29100 | 100 | 9590
18 | FAFADLTVVY | 402 | 26800 | 23700 | 5870 | 18600
19 | NTLEQTVKR | 8.6 | 18 | 2270 | 1150 | 20400
20 | ALNAAAAAK | 80000 | > 72500 | 11000 | 21 | 74
21 | YTFVFADLR | 2.9 | 6.6 | 20 | 8.1 | 3630
22 | GVSGPGPGK | 209 | > 112000 | > 11200 | 5.8 | 13

Row | Sequence | IC50 (HLA-A*6801) [nM] | IC50 (HLA-A*3301) [nM] | IC50 (HLA-A*3101) [nM] | IC50 (HLA-A*1101) [nM] | IC50 (HLA-A*0301) [nM]
23 | KVSEFRWYRR | 30 | 159 | 2.8 | 16 | 266
24 | FISFYLINK | 18 | 1460 | 2190 | 9 | 19
25 | DTLEQTLKR | 110 | 9.2 | 38100 | 12900 | 31300
26 | KVRFHNIRGR | 3980 | 4500 | 27 | 8630 | 39
27 | TSVHEIELR | 12 | 5950 | 1040 | 872 | > 64300
28 | ETVRHFPR | 86 | 81 | 1000 | 4180 | > 13500
29 | AVPGGYPRRK | 846 | > 5570 | 40000 | 60 | 819
30 | KTLGISYGRK | 1630 | 42400 | 841 | 79 | 36
31 | QMAVGPGPGK | 22 | 86700 | 5960 | 16 | 33
32 | VSIRVGGQIK | 1960 | > 61700 | 50700 | 91 | 642
33 | SLYGKTLEEK | 29 | 6520 | 1040 | 6.8 | 7.9
34 | KVGSLQYLK | 4200 | > 43700 | 2100 | 70 | 482
35 | GVSHAQLPAK | 20600 | > 74900 | 36000 | 12 | 42
36 | STLGPGPGVRR | 3.8 | 670 | 42 | 19 | 892
37 | TLEQTVKK | 21400 | > 75300 | > 100000 | 203 | 4770
38 | YLFNQHIKK | 14 | 7970 | 4920 | 7.8 | 14
39 | DTVYGDTLEK | 31 | 55100 | 28800 | 15 | 50
40 | DTIPHAACHK | 23 | 9.3 | 1760 | 701 | 2370
41 | ALQAAAAAK | > 80000 | > 72500 | 52000 | 65 | 57
42 | QMMNVNLQK | 243 | 6650 | 504 | 7 | 20
43 | PVRPQVPLR | 7010 | 3440 | 332 | 16100 | > 10900
44 | GVDGLIYSK | 5100 | > 29700 | > 17700 | 47 | 10100

Row | Sequence | IC50 (HLA-A*6801) [nM] | IC50 (HLA-A*3301) [nM] | IC50 (HLA-A*3101) [nM] | IC50 (HLA-A*1101) [nM] | IC50 (HLA-A*0301) [nM]
45 | AVKDLFVVYR | 3.3 | 9.1 | 3.1 | 91 | 1730
46 | KFYSKISEYK | 208 | 329 | 27 | 674 | 7.6
47 | GTMYILLKK | 3.1 | 8450 | 29 | 1.2 | 2.2
48 | NIMGRWTGK | 173 | 86 | 3270 | 54 | 52
49 | VTIKIEGQLK | 27 | 58000 | 5080 | 69 | 361
50 | LVTDLRIVYR | 6.8 | 150 | 20 | 648 | 3870
51 | STLPGPGPGRR | 25 | 1890 | 61 | 19 | 297
52 | LTISYGRK | 482 | 38200 | 27100 | 708 | 988
53 | LTFYSKVRK | 13 | 3380 | 87 | 8 | 3.8
54 | AVKDLCIVYR | 6.5 | 8 | 7.3 | 66 | 841
55 | VSHAQLPAK | 13500 | 1400 | 46 | 9.5 | 378
56 | FLYLLNKKNK | 155 | 780 | 4310 | 475 | 177
57 | GTTLESITKK | 10100 | 133000 | 85200 | 108 | 622
58 | YSVYGTTLER | 19 | 6900 | 2140 | 96 | 430
59 | STGPGPGVVRR | 5.8 | 5980 | 95 | 367 | 18700
60 | LTISYGRKK | 63 | 59700 | 13900 | 69 | 584
61 | GFNHQHLPAR | 34600 | 5570 | 173 | 27900 | > 46600
62 | KISEYRHYNR | 1580 | 161 | 17 | 140 | 58
63 | SVCRSSRTR | 17 | 547 | 249 | 97 | 323
64 | KQRFHNIRGK | 22900 | 35200 | 573 | 1950 | 55
65 | GVNHQHLPAK | 9350 | 76200 | 3340 | 11 | 42
66 | SLGPGPGTK | 3520 | 152000 | 4390 | 5.8 | 7.8
